Data on twelve molecules can be found in patent US20230382909A1, “BICYCLIC COMPOUNDS” (Aligos Therapeutics, Inc., priority 2022, published 2023).

One data set has as its system HBV. The data set can be described thus: HBV-DNA antiviral assay using HepG2.117 cells. The class given is cell-based, HBV genotype D. Particulars: Hepatitis B virus, HepG2.117, 72 h. How it is done:
(§1) The following assay procedure describes the HBV antiviral assay, using HepG2.117 cells, which carry a stably integrated genotype D HBV genome under the control of a Tet-off promoter, and intracellular HBV DNA quantification as endpoint. Cell viability is assessed in parallel by measuring the intracellular ATP content using CellTiter-Glo 2.0 (Promega).
On day 0, HepG2.117 cells (which are maintained in routine cell culture with doxycycline present in the medium at a final concentration of 1 μg/mL) are seeded in 96-well plates (white with clear bottom) at a density of 2.0×10^4 cells/well (0.1 mL/well) in medium without doxycycline to induce pgRNA transcription and subsequent formation of HBV particles. The cells are incubated at 37° C. and 5% CO2.
(§2) On day 1, medium is removed from each well, the test articles are diluted in culture medium without doxcycyline and 100 μL was added to cell culture wells (9 concentrations, 4-fold dilution). For each plate, 6 untreated (merely DMSO) wells are included. The final concentration of DMSO in the culture medium is 2%. Each plate is prepared in duplicate (one for HBV DNA extraction, one for CellTiter-Glo 2.0 measurement). The cells are incubated at 37° C. and 5% CO2 for 3 days.
(§3) On day 4, cell viability is assessed using CellTiter-Glo 2.0 and cell lysates are prepared for HBV DNA extraction and subsequent quantification by qPCR.
HBV DNA Quantification by qPCR
Medium is removed from each well and 100 μL of 0.33% NP-40 in H2O was added to each well. Plates are sealed, incubated at 4° C. for 5 mins, vortexed extensively and centrifuged briefly. Next, 35 μL of lysate is added to 65 μL QuickExtract DNA Extraction Solution (Epicentre) in a PCR plate for each well. PCR plate is incubated at 65° C. for 6 mins, 98° C. for 2 mins and finally cooled to 4° C. HBV DNA is then quantified by qPCR with HBV-specific primers and probes as specified in Table 3 using the Bio-Rad SSOAdvanced Universal Probes Supermix on a CFX96 machine (Bio-Rad). The PCR cycle program consisted of 95° C. for 3 mins, followed by 40 cycles at 95° C. for 10 sec and 60° C. for 30 sec.
A DNA standard is prepared by dilution of an IDT gBlock corresponding to the amplicon with concentrations ranging from 10^2 to 10^8 copies/input (i.e., per 4 μL) and used to generate a standard curve by plotting Cq values vs. HBV DNA standard concentration. The quantity of HBV DNA in each sample is determined by interpolating from the standard curve.
(§4) Cell viability is calculated as follows: % Cell viability=(luminescence value of test sample)/(average luminescence value of 2% DMSO control)×100%. HBV DNA inhibition was calculated as follows: 100−(HBV DNA copy number of test sample)/(average HBV DNA copy number of 2% DMSO control)×100%. No normalization to entecavir is required due to the excellent dynamic window of this assay. The CC50, EC50 and EC9o values were determined by dose-response curves fitted using non-linear regression.

Data set [1] in a line: Cell viability by CellTiter-Glo 2.0 (intracellular ATP content) in HepG2.117 cells. The class given is cell-based. The conditions noted are these: human, CellTiter-Glo 2.0, 3 days incubation. How it is done:
as §1, §2, §3
Using the other plates, the cell viability is quantified by CellTiter-Glo 2.0 according to the manufacturer's manual. In brief, 100 μL of reagent solution is added to the culture plates and shaken for 2′. The plates are incubated at rt for 10 min and luminescence signal is subsequently measured on a VarioSkan Lux (ThermoFisher) plate reader.
as §4
For orientation: ATP-based viability assays read luminescence as a measure of living cells.

Regarding `Cc1cc(C)n(-c2nc3c(c(=O)n2-c2ccc(NC[C@H](O)CO)nc2)C[C@@H](C)N(C(=O)c2ccc(Br)c(C(F)(F)F)c2)C3)n1` [Compound 31, (6R)-7-[4-bromo-3-(trifluoromethyl)benzoyl]-3-[6-[[(2S)-2,3-dihydroxypropyl]amino]-3-pyridyl]-2-(3,5-dimethylpyrazol-1-yl)-6-methyl-6,8-dihydro-5H-pyrido[3,4-d]pyrimidin-4-one], the EC50 (as a rule, the concentration at which the effect is half-maximal) in the data set with HBV is 50 to 500 nM. In addition, the CC50 – broadly, the concentration giving 50% cytotoxicity – at 3 days in data set [1] is above 500 nM.

Consider `Cc1cc(C)n(-c2nc3c(c(=O)n2-c2ccc(N4CC(O)C4)nc2)C[C@@H](C)N(C(=O)c2ccc(Br)c(C(F)(F)F)c2)C3)n1` [Compound 32, (6R)-7-[4-bromo-3-(trifluoromethyl)benzoyl]-2-(3,5-dimethylpyrazol-1-yl)-3-[6-(3-hydroxyazetidin-1-yl)-3-pyridyl]-6-methyl-6,8-dihydro-5H-pyrido[3,4-d]pyrimidin-4-one], for which the EC50 in the data set on HBV was below 50 nM. The same molecule showed a CC50 at 3 days in data set [1] above 500 nM.

In the data set on HBV, `Cc1cc(C)n(-c2nc3c(c(=O)n2-c2ccc(N4CC[C@H](O)C4)nc2)C[C@@H](C)N(C(=O)c2ccc(Br)c(C(F)(F)F)c2)C3)n1` [Compound 33, (6R)-7-[4-bromo-3-(trifluoromethyl)benzoyl]-2-(3,5-dimethylpyrazol-1-yl)-3-[6-[(3S)-3-hydroxypyrrolidin-1-yl]-3-pyridyl]-6-methyl-6,8-dihydro-5H-pyrido[3,4-d]pyrimidin-4-one] registered an EC50 below 50 nM. Moreover, the CC50 at 3 days in data set [1] is above 500 nM.

In the data set with HBV, `Cc1cc(C)n(-c2nc3c(c(=O)n2-c2ccc(N4CCN(C(C)C)CC4)nc2)C[C@@H](C)N(C(=O)c2ccc(Br)c(C(F)(F)F)c2)C3)n1` [Compound 34, (6R)-7-[4-bromo-3-(trifluoromethyl)benzoyl]-2-(3,5-dimethylpyrazol-1-yl)-3-[6-(4-isopropylpiperazin-1-yl)-3-pyridyl]-6-methyl-6,8-dihydro-5H-pyrido[3,4-d]pyrimidin-4-one] displayed an EC50 below 50 nM. The same molecule displayed a CC50 at 3 days in data set [1] above 500 nM.

In turn, `Cc1cc(C)n(-c2nc3c(c(=O)n2-c2ccc(N[C@H]4C[C@@H](O)C4)nc2)C[C@@H](C)N(C(=O)c2ccc(Br)c(C(F)(F)F)c2)C3)n1` [Compound 35, (R)-7-(4-bromo-3-(trifluoromethyl)benzoyl]-2-(3,5-dimethyl-1H-pyrazol-1-yl)-3-(6-(((1s,3S)-3-hydroxycyclobutyl)amino)pyridin-3-yl)-6-methyl-5,6,7,8-tetrahydropyrido[3,4-d]pyrimidin-4(3H)-one] came in with an EC50 in the data set with HBV below 50 nM. Further, the CC50 at 3 days in data set [1] is above 500 nM.

For `Cc1cc(C)n(-c2nc3c(c(=O)n2-c2ccc(N[C@H]4C[C@H](O)C4)nc2)C[C@@H](C)N(C(=O)c2ccc(Br)c(C(F)(F)F)c2)C3)n1` [Compound 36, (R)-7-(4-bromo-3-(trifluoromethyl)benzoyl)-2-(3,5-dimethyl-1H-pyrazol-1-yl)-3-(6-(((1r,3R)-3-hydroxycyclobutyl)amino)pyridin-3-yl)-6-methyl-5,6,7,8-tetrahydropyrido[3,4-d]pyrimidin-4(3H)-one], the EC50 in the data set on HBV was below 50 nM. For the same molecule, in data set [1], the CC50 at 3 days was above 500 nM.

The molecule `Cc1cc(C)n(-c2nc3c(c(=O)n2-c2ccc(O[C@H]4C[C@@H](O)C4)cc2)C[C@@H](C)N(C(=O)c2ccc(Br)c(C(F)(F)F)c2)C3)n1` [Compound 37, (R)-7-(4-bromo-3-(trifluoromethyl)benzoyl)-2-(3,5-dimethyl-1H-pyrazol-1-yl)-3-(4-((1s,3S)-3-hydroxycyclobutoxy)phenyl)-6-methyl-5,6,7,8-tetrahydropyrido[3,4-d]pyrimidin-4(3H)-one] had an EC50 with HBV below 50 nM. In data set [1], this molecule gave a CC50 at 3 days above 500 nM.

In turn, `Cc1cc(C)n(-c2nc3c(c(=O)n2-c2ccc(O[C@H]4C[C@H](O)C4)cc2)C[C@@H](C)N(C(=O)c2ccc(Br)c(C(F)(F)F)c2)C3)n1` [Compound 38, (R)-7-(4-bromo-3-(trifluoromethyl)benzoyl)-2-(3,5-dimethyl-1H-pyrazol-1-yl)-3-(4-((1r,3R)-3-hydroxycyclobutoxy)phenyl)-6-methyl-5,6,7,8-tetrahydropyrido[3,4-d]pyrimidin-4(3H)-one] registered an EC50 with HBV below 50 nM. The CC50 at 3 days in data set [1] was above 500 nM.

For the molecule `Cc1cc(C)n(-c2nc3c(c(=O)n2-c2ccc(O[C@H]4C[C@@H](O)C4)nc2)C[C@@H](C)N(C(=O)c2ccc(Br)c(C(F)(F)F)c2)C3)n1` [Compound 39, (R)-7-(4-bromo-3-(trifluoromethyl)benzoyl)-2-(3,5-dimethyl-1H-pyrazol-1-yl)-3-(6-((1s,3S)-3-hydroxycyclobutoxy)pyridin-3-yl)-6-methyl-5,6,7,8-tetrahydropyrido[3,4-d]pyrimidin-4(3H)-one], the EC50 in the data set on HBV was below 50 nM. Also, the CC50 at 3 days in data set [1] was above 500 nM.

In the data set with HBV, `Cc1cc(C)n(-c2nc3c(c(=O)n2-c2ccc(O[C@H]4C[C@H](O)C4)nc2)C[C@@H](C)N(C(=O)c2ccc(Br)c(C(F)(F)F)c2)C3)n1` [Compound 40, (R)-7-(4-bromo-3-(trifluoromethyl)benzoyl)-2-(3,5-dimethyl-1H-pyrazol-1-yl)-3-(6-((1r,3R)-3-hydroxycyclobutoxy)pyridin-3-yl)-6-methyl-5,6,7,8-tetrahydropyrido[3,4-d]pyrimidin-4(3H)-one] returned an EC50 below 50 nM. This molecule showed a CC50 at 3 days in data set [1] above 500 nM.

For the molecule `Cc1cc(C)n(-c2nc3c(c(=O)n2-c2ncc(N)cn2)C[C@@H](C)N(C(=O)c2ccc(Br)c(C(F)(F)F)c2)C3)n1` [Compound 41, (R)-3-(5-aminopyrimidin-2-yl)-7-(4-bromo-3-(trifluoromethyl)benzoyl)-2-(3,5-dimethyl-1H-pyrazol-1-yl)-6-methyl-5,6,7,8-tetrahydropyrido[3,4-d]pyrimidin-4(3H)-one], in the data set on HBV, the concentration for a half-maximal effect (EC50) is below 50 nM. This molecule returned a CC50 at 3 days in data set [1] above 500 nM.

As for `CNc1cnc(-n2c(-n3nc(C)cc3C)nc3c(c2=O)C[C@@H](C)N(C(=O)c2ccc(Br)c(C(F)(F)F)c2)C3)nc1` [Compound 42, (R)-7-(4-bromo-3-(trifluoromethyl)benzoyl)-2-(3,5-dimethyl-1H-pyrazol-1-yl)-6-methyl-3-(5-(methylamino)pyrimidin-2-yl)-5,6,7,8-tetrahydropyrido[3,4-d]pyrimidin-4(3H)-one], in the data set with HBV, the EC50 was below 50 nM. The same molecule displayed a CC50 at 3 days in data set [1] above 500 nM.
